Results as given in US10398751B2, “Pharmaceutical compositions of water soluble peptides with poor solubility in isotonic conditions and methods for their use” (STRONGBRIDGE IRELAND LIMITED, priority 2016, dated 2019).
Structures can show the parent of a compound that is named as a salt.

Tests used:
[1] = Circulatory half-life after subcutaneous administration to rats; details: rat, in vivo, sc
Excerpt: The unique pharmacokinetic profile of veldoreotide acetate as evaluated in animals is consistent with its metabolic stability as evaluated in-vitro against various enzymes and tissue homogenates. […] This prolonged half-life is due to its unique “flip-flop” kinetics, a result of its slow release from the injection site.

[2] = Pharmacokinetics of IR formulations in minipigs; format: in vivo; details: minipig, plasma, sc; for AUC(0-t) / Tmax: minipigs
[3] = Solubility of COR005 acetate in aqueous media with additives at 25° C.; format: physicochemical; details: read-out: Solubility of COR005 Acetate (mg/ml) at 25° C.
Excerpt: Table 3 summarizes the solubility values of COR005 acetate in various aqueous media, the effects of additives such as DEX and HPB on the peptide solubility in saline and physiological conditions, as well as the PK profile of IR and MS formulations prepared with these additives in comparison to COR005 without additives as control.
Note that both media (PBS or Saline) contained physiological concentrations of chloride which indicates the incompatibility and salting out of the peptide in the presence of the chloride ion.
The relatively high solubility of COR005 acetate in 5% dextrose (in water) of greater than 500 mg/ml indicates the improved solubility of the peptide in water with dextrose. […] Note that this 1:1 diluted dextrose in saline was used as a vehicle in the IR study of COR005 acetate in rats and minipigs (the DEX:PEP ratio was 5:1).

[4] = system: human Carcinoid cell line; assay: Chromogranin A release; format: cell-based
[5] = Solubility and surface activity in PBS under physiological conditions (37° C.); format: physicochemical; details: PBS pH 7.4, 37° C., COR005 10 mg/ml
Procedure: Table 6 summarizes the effects of additives on the surface activity profile of COR005 acetate under physiological conditions (37° C.) that emulate the release of COR005 at the injection site.

[6] = Peptide content, encapsulation efficiency and residual additives of microspheres; format: physicochemical; details: Example 7 PLGA 50:50 (7-17 kDa) microspheres
Excerpt: These observations and conclusion are supported by the analysis of the residual HPB concentration in the MS formulations of HPB. Indeed, the analytical data (see below) confirms that the same ratio of HPB:PEP were maintained in the final MS of HPB and therefore verifying the conditions and data of Table 6.
Therefore, unlike the case of HPB, the effect of the DEX on the COR005 surface activity at the injection site seems to be negligible. The effect for the DEX is addressed in the SEM analysis section below.
Tables 19 and 20 summarize the peptide content and encapsulation efficiency (EE) of bulk samples of microspheres, measured by HPLC.
PLGA microspheres containing veldoreotide acetate were prepared. 500 mg of PLGA 50:50 (7-17 kDa) was dissolved in 5 mL dichloromethane oil phase). An aqueous solution contacting 50 mg of veldoreotide acetate in 1 ml of DDW prepared separately (inner aqueous phase). The first aqueous phase was emulsified into the oil phase (containing PLGA), using a high-speed homogenizer (Polytron) at 2-8° C. using different speeds and time durations to form water in oil primary emulsion. The primary emulsion was added (drop wise) into the 100 ml of external aqueous phase containing 1% PVA solution in PBS to form secondary emulsion. […]

[7] = Solubility in Tris-HCl and lysine solutions; format: physicochemical
Procedure: In light of the solubility of veldoreotide acetate in Tris-HCl, the solubility of veldoreotide acetate was tested in solutions containing L-lysine and L-lysine HCl.

[8] = Quantitative assessment of veldoreotide acetate solubility by HPLC; format: physicochemical; details: read-out: Solubility (g/liter) - HPLC
Excerpt: The solubility of veldoreotide acetate in aqueous media was screened by the following method. A fixed amount of 10 milligrams of the peptide was weighed and dissolved at ambient temperature by increased (incremental) volumes of the tested medium until a complete solubility was observed, i.e, clear/transparent solution and absence of any precipitates (the solubility endpoint values were defined according to USP guidance). Following the results of the screening studies, several media were selected for verification studies based on quantitative assessment of the peptide concentration by HPLC (maximal solubility). The results of the screening study are depicted in Table 1 while the results of the verification studies are included in Table 2.

[9] = system: CHO-cells expression cloned human SST-R5; assay: Growth inhibition of CHO cells; format: cell-based
human lymphocytes = assay: Human peripheral blood lymphocytes proliferation assays; format: cell-based
[10] = 0.1 mg/kg, IR, SC 0.1 mg/Kg, DEX:PEP 5:1 saline
[11] = 0.1 mg/kg, IR, SC 0.1 mg/Kg, Lactic acid buffer
[12] = 0.4 mg/kg, IR, SC 0.4 mg/Kg, DEX:PEP 5:1 saline
[13] = 0.4 mg/kg, IR, SC 0.4 mg/Kg, HPB:PEP 15:1 saline
[14] = 0.4 mg/kg, IR, SC 0.4 mg/Kg, Lactic acid buffer

C[C@@H](O)[C@@H]1NC(=O)[C@H](CCCCN)NC(=O)[C@@H](Cc2c[nH]c3ccccc23)NC(=O)[C@H](Cc2c[nH]c3ccccc23)NC(=O)[C@H](Cc2ccccc2)NC(=O)CCCNC(=O)CCCN(CC(N)=O)C(=O)[C@H](Cc2ccccc2)NC1=O [Veldoreotide Acetate, Cyclo(-γ-aminobutyryl-L-phenylalanyl-L-tryptophanyl-D-tryptophanyl-L-lysyl-L-threonyl-L-phenylalanyl-N-carbamoylmethyl-γ-aminobutyryl), acetate salt] showed a half-life [1] of about 180 min, a Cmax ([2]; 0.1 mg/kg, IR, SC, 0.1 mg/Kg, DEX:PEP 5:1 saline) of 53 ng/mL and an AUC(0-t) [2, 10] of 53 ng·h/mL. The Tmax [2, 10] was 60 min, the AUC(0-t) [2, 11] was 26 ng·h/mL and the Tmax [2, 11] was 30 min. For the same compound, the Cmax ([2]; 0.1 mg/kg, pH 4, IR, Lactic acid buffer pH 4) was 29 ng/mL, the AUC(0-t) [2, 12] was 205 ng·h/mL and the Tmax [2, 12] was 30 min. For the same compound, the AUC(0-t) [2, 13] was 198 ng·h/mL, the Tmax [2, 13] was 15 min and the AUC(0-t) [2, 14] was 161 ng·h/mL. It also gave a Tmax [2, 14] of 60 min, a solubility ([3]; 0.45% NaCl with […] dextrose (isotonic), Isotonic 0.45NS (0.45% NaCl) 2.5D Dextrose […], DEX:PEP 5:1) of 6 to 7 mg/mL and a solubility ([3]; 0.45% NaCl, 0.45NS - 0.45% NaCl, additives none) of 3 mg/mL. It also gave a solubility ([3]; 5% dextrose in water (isotonic), 5% Dextrose Isotonic, additives none) of at least 300 mg/mL, a solubility ([3]; isotonic PBS pH 7.4, pH 7.4, PBS pH 7.4 Isotonic, HPB:PEP 1:1) of 4.5 mg/mL and a solubility ([3]; isotonic PBS pH 7.4, pH 7.4, PBS pH 7.4 Isotonic, HPB:PEP 1:4) of 2.5 mg/mL. It also gave a solubility ([3]; isotonic PBS pH 7.4, pH 7.4, PBS pH 7.4 Isotonic, HPB:PEP 10:1) of 10 mg/mL, a solubility ([3]; isotonic PBS with HPB, pH 7.4, PBS pH 7.4 Isotonic, HPB:PEP 1:2) of 2.5 mg/mL and a solubility ([3]; isotonic PBS with dextrose, pH 7.4, PBS pH 7.4 Isotonic, DEX:PEP 1:8) of 2 mg/mL. The solubility ([3]; isotonic PBS with dextrose, pH 7.4, PBS pH 7.4 Isotonic, DEX:PEP 5:1) was 1.6 mg/mL, the solubility ([3]; isotonic saline, Saline Isotonic, HPB:PEP 15:1) was 10 mg/mL and the solubility ([3]; isotonic saline, Saline Isotonic, Lys-HCl:PEP 4:1) was 1.7 mg/mL. The solubility ([3]; lactic acid buffer pH 4.0, isotonic, pH 4, Lactic acid buffer pH 4.0 Isotonic, MAN:PEP 20:1, HPB:PEP 15:1, Est. = estimated by UV-Vis) was 500 mg/mL, the solubility ([3]; lactic acid buffer pH 4.0, isotonic, pH 4, Lactic acid buffer pH 4.0 Isotonic, Mannitol MAN:PEP 20:1, Est. = estimated by UV-Vis) was 500 mg/mL and the solubility ([3]; normal saline (0.9% NaCl), NS - 0.9% NaCl, additives none) was 1 to 2 mg/mL. For the same compound, the solubility ([3]; water, additives none) was at least 300 mg/mL, the “Chromogranin A release” value [4] was “inhibits” and the “Surface tension (dyne/cm)” value ([5]; HPB:PEP 1:4) was 39 dyne/cm. For the same compound, the “Surface tension (dyne/cm)” value ([5]; no additive) was 34 dyne/cm, the “encapsulation efficiency (EE) %” value [6] was 77% and the “final drug load in microspheres” value [6] was 6 weight %. The solubility ([7]; 20 mM Tris-HCl) was “highly soluble”, the solubility ([7]; Tris-HCl increased to 137 mM or 117 mM NaCl added) was “significantly reduced” and the “effect on solubility of veldoreotide acetate” value ([7]; addition of L-lysine HCl, isotonic media) was “substantially improved”. The “effect on solubility of veldoreotide acetate” value ([7]; solution containing L-lysine) was “did not substantially improve”, the solubility ([8]; 20 mM HEPES buffer, 20 mM HEPES, pH 7.2) was 212 g/L and the solubility ([8]; 20 mM phosphate buffer, 20 mM Phosphate (10 mM Na2HPO4 + 10 mM NaH2PO4), pH 7.2) was 212 g/L. The solubility ([8]; 0.9% NaCl, pH 4.5) was 2.31 g/L, the solubility ([8]; PBS, pH 7.4) was 3.25 g/L and the solubility ([8]; water) was 234 g/L. For the same compound, the growth inhibition [9] was “significant growth inhibition” and the “mitogenicity for human lymphocytes” value (human lymphocytes) was “non-mitogenic”.
